The results in this text go back to PubChem BioAssay AID2060345 (Molecular Pharmacology Branch, DTP, NCI, 2025).

The test relates to MALME-3M multicell spheroids, viability. Put plainly: Anticancer human tumor MALME-3M cell line growth inhibition [TAK].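 For all read-outs here: spheroids exposed to drugs for seven days before readout.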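 For viability, T/C: 100% = DMSO vehicle control viability.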 To be noted: for viability, T/C: stronger effect = lower value. In a few lines:
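Spheroids of 60% malignant cells, 25% HUVEC and 15% hMSC were exposed to targeted agents combined with TAK-243 or ipatasertib. Concentrations started at or near clinical Cmax (10 microM if unknown) and descended in half-log steps.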

Where [1] appears, read: curve of first compound, second compound 0.3 µM.
[2] abbreviates: curve of first compound, second compound 0.949 µM.
The mark [3] stands for this setting: curve of first compound, second compound 3 µM.
The mark [4] stands for this setting: curve of first compound, second compound 9.49 µM.
[5] abbreviates: curve of first compound, second compound 30 µM.
Where [6] appears, read: second compound 0.3 µM, first compound 0.316 µM.
Where [7] appears, read: second compound 0.3 µM, first compound 1 µM.
The mark [8] stands for this setting: second compound 0.949 µM, first compound 0.316 µM.
[9] abbreviates: second compound 0.949 µM, first compound 1 µM.
The mark [10] stands for this setting: second compound 3 µM, first compound 0.316 µM.
Setting [11] is: second compound 3 µM, first compound 1 µM.
Where [12] appears, read: second compound 9.49 µM, first compound 0.316 µM.
The mark [13] stands for this setting: second compound 9.49 µM, first compound 1 µM.
Setting [14] is: second compound 30 µM, first compound 0.316 µM.
Where [15] appears, read: second compound 30 µM, first compound 1 µM.

By IC50 is commonly meant the point on the concentration scale where inhibition reaches its midpoint. In general, viability, T/C refers to the ratio of treated to control.

Where “and” joins values, the source holds several entries; their conditions need not be identical. Equal values may be shown once. A value given as a limit tells only on which side of the number the result lay.

`CCCS(=O)(=O)Nc1ccc(F)c(C(=O)c2c[nH]c3ncc(-c4ccc(Cl)cc4)cc23)c1F` + CC(C)NCC(C(=O)N1CCN(c2ncnc3c2C(C)CC3O)CC1)c1ccc(Cl)cc1: the IC50 under setting [1] is less than 0.316 µM; the half-maximal inhibitory concentration (IC50) under setting [2] is less than 0.316 µM; the 50% inhibitory concentration (IC50) under setting [3] is less than 0.316 µM; the IC50 under setting [4] is less than 0.316 µM; the IC50 under setting [5] is less than 0.316 µM. Moreover, the viability, T/C reads like this: under setting [6], 29.3%; under setting [7], 21.5%; (second compound 0.3 µM, first compound 3.16 µM) 23.6%; (second compound 0.3 µM, first compound 10 µM) 19.3%; (second compound 0.3 µM, first compound 31.6 µM) 0.51%; (second compound 0.3 µM, first compound 100 µM) 11.1%. In addition, the viability, T/C under setting [8] is 31.8%; the viability, T/C under setting [9] is 25.8%; the viability, T/C (second compound 0.949 µM, first compound 3.16 µM) is 23.6%; the viability, T/C (second compound 0.949 µM, first compound 10 µM) was 22.1%; the viability, T/C (second compound 0.949 µM, first compound 31.6 µM) was 2.72%; the viability, T/C (second compound 0.949 µM, first compound 100 µM) is 12.1%. The viability, T/C is 30% under setting [10]; 24.9% under setting [11]; 21.4% (second compound 3 µM, first compound 3.16 µM); 15.9% (second compound 3 µM, first compound 10 µM); 1.69% (second compound 3 µM, first compound 31.6 µM); 3.88% (second compound 3 µM, first compound 100 µM). The viability, T/C is, setting by setting: under setting [12], 24.8%; under setting [13], 20.6%; (second compound 9.49 µM, first compound 3.16 µM) 17.9%; (second compound 9.49 µM, first compound 10 µM) 10.8%; (second compound 9.49 µM, first compound 31.6 µM) 0.89%; (second compound 9.49 µM, first compound 100 µM) 1.65%. Besides, the viability, T/C runs as follows: under setting [14], 15.1%; under setting [15], 16.4%; (second compound 30 µM, first compound 3.16 µM) 9.92%; (second compound 30 µM, first compound 10 µM) 0.89%; (second compound 30 µM, first compound 31.6 µM) 0.35%; (second compound 30 µM, first compound 100 µM) 0.54%.
Take `CC(C)CC(NC(=O)CNC(=O)c1cc(Cl)ccc1Cl)B1OC(=O)CC(CC(=O)O)(C(=O)O)O1` (stereo not drawn): the viability, T/C is, setting by setting: (compound 0.000316 µM) 89.2% and 116%; (compound 0.001 µM) 86.8% and 91.6%; (compound 0.00316 µM) 88.2% and 98.5%; (compound 0.01 µM) 88.2% and 96%; (compound 0.0316 µM) 7.17% and 7.01%; (compound 0.1 µM) 0.41% and 1.22%. In addition, the IC50 (curve of compound) is 0.0172 µM and 0.0181 µM.
Regarding `CC(C)n1nc(-c2ccc3oc(N)nc3c2)c2c(N)ncnc21`, the viability, T/C runs as follows: (compound 0.000316 µM) 78.4% and 94.5%; (compound 0.001 µM) 64.4% and 88.7%; (compound 0.00316 µM) 63% and 77.5%; (compound 0.01 µM) 47.5% and 70.1%; (compound 0.0316 µM) 28.3% and 33%; (compound 0.1 µM) 10.5% and 13.6%. Also, the 50% inhibitory concentration (IC50) (curve of compound) is 0.00744 µM and 0.0181 µM.
Consider `COc1c(OCCCN2CCOCC2)ccc2c3n(c(=NC(=O)c4cnc(N)nc4)nc12)CCN3` + CC(C)NCC(C(=O)N1CCN(c2ncnc3c2C(C)CC3O)CC1)c1ccc(Cl)cc1, for which the half-inhibitory concentration (IC50) under setting [1] came to 0.125 µM; the half-maximal inhibitory concentration (IC50) under setting [2] was found to be 0.109 µM; the half-maximal inhibitory concentration (IC50) under setting [3] is 0.0662 µM; the IC50 under setting [4] amounted to 0.0414 µM; the half-maximal inhibitory concentration (IC50) under setting [5] came out at 0.0059 µM. In addition, the viability, T/C runs as follows: (second compound 0.3 µM, first compound 0.00316 µM) 109%; (second compound 0.3 µM, first compound 0.01 µM) 96.3%; (second compound 0.3 µM, first compound 0.0316 µM) 76.3%; (second compound 0.3 µM, first compound 0.1 µM) 62.2%; under setting [6], 23.1%; under setting [7], 12.3%. Also, the viability, T/C (second compound 0.949 µM, first compound 0.00316 µM) is 98.4%; the viability, T/C (second compound 0.949 µM, first compound 0.01 µM) is 95%; the viability, T/C (second compound 0.949 µM, first compound 0.0316 µM) is 76.2%; the viability, T/C (second compound 0.949 µM, first compound 0.1 µM) was 55.3%; the viability, T/C under setting [8] is 22.3%; the viability, T/C under setting [9] was 11.7%. The viability, T/C reads like this: (second compound 3 µM, first compound 0.00316 µM) 82.3%; (second compound 3 µM, first compound 0.01 µM) 81.8%; (second compound 3 µM, first compound 0.0316 µM) 63.1%; (second compound 3 µM, first compound 0.1 µM) 43.6%; under setting [10], 16.7%; under setting [11], 10.6%. For the same compound, the viability, T/C is 69.8% (second compound 9.49 µM, first compound 0.00316 µM); 72.8% (second compound 9.49 µM, first compound 0.01 µM); 54.2% (second compound 9.49 µM, first compound 0.0316 µM); 31.3% (second compound 9.49 µM, first compound 0.1 µM); 15.3% under setting [12]; 11.8% under setting [13]. The viability, T/C is, setting by setting: (second compound 30 µM, first compound 0.00316 µM) 45.8%; (second compound 30 µM, first compound 0.01 µM) 56.7%; (second compound 30 µM, first compound 0.0316 µM) 39.3%; (second compound 30 µM, first compound 0.1 µM) 26.5%; under setting [14], 10.6%; under setting [15], 6.33%.
As for `CC(C)(C)c1nc(-c2cccc(NS(=O)(=O)c3c(F)cccc3F)c2F)c(-c2ccnc(N)n2)s1`, the viability, T/C runs as follows: (compound 0.0316 µM) 21.4% and 24.8%; (compound 0.1 µM) 22.8% and 21.5%; (compound 0.316 µM) 20.7% and 21.4%; (compound 1 µM) 22.4% and 21.4%; (compound 3.16 µM) 21.2% and 23.6%; (compound 10 µM) 29.8% and 27.6%. In addition, where the note is “curve of compound”, the IC50 was less than 0.0316 µM.
On to `COC1CC2CCC(C)C(O)(O2)C(=O)C(=O)N2CCCCC2C(=O)OC(C(C)CC2CCC(OCCO)C(OC)C2)CC(=O)C(C)C=C(C)C(O)C(OC)C(=O)C(C)CC(C)C=CC=CC=C1C` (stereo not drawn), for which the viability, T/C is 83% and 79.4% (compound 0.000316 µM); 66.2% and 59.1% (compound 0.001 µM); 58.1% and 59.4% (compound 0.00316 µM); 52.3% and 58.6% (compound 0.01 µM); 50.5% and 50.7% (compound 0.0316 µM); 44.2% and 44% (compound 0.1 µM). Further, for the setting “curve of compound”, the concentration for half-maximal inhibition (IC50) is 0.0186 µM and 0.0281 µM.
